Activity calls are given as the source filed them. The rule behind the calls is not given here.
Tests used:
Canis familiaris [1] = test: Antihyperlipidemic activity in Beagle dog serum assessed as reduction in free fatty acids level at 0.3 to 10 mg/kg, po/day after 7 days; assay type: functional, organism-based; conditions: Canis lupus familiaris
[2] = Half life in ob/ob C57BL/6J-leptin deficient obese mouse at 3 mg/kg administered as single dose on day 11; assay type: ADME, organism-based; set-up: dose 3 mg/kg; conditions: in vivo
[3] = AUC in ob/ob C57BL/6J-leptin deficient obese mouse at 3 mg/kg administered as single dose on day 11; assay type: ADME, organism-based; set-up: dose 3 mg/kg; conditions: plasma
[4] = Half life in Beagle dog at 3 mg/kg administered as multiple dose after 7 days; assay type: ADME, organism-based, Canis lupus familiaris; set-up: dose 3 mg/kg; conditions: in vivo
[5] = Activity at retinoic acid receptor
[6] = Cmax in Sprague-Dawley rat at 3 mg/kg administered as single dose on day 8; assay type: ADME, organism-based; set-up: dose 3 mg/kg; conditions: in vivo
[7] = Induction of CPT1 gene expression in human skeletal muscle cells at 1 nM by RT-PCR; assay type: functional
[8] = target: T1, Peroxisome proliferator-activated receptor delta (Homo sapiens, UniProt Q03181); test: Agonist activity at human PPARdelta-Gal4 in HEK293 cells by luciferase reporter assay; assay type: functional, cell-based
T1 sequence (Q03181 whole entry): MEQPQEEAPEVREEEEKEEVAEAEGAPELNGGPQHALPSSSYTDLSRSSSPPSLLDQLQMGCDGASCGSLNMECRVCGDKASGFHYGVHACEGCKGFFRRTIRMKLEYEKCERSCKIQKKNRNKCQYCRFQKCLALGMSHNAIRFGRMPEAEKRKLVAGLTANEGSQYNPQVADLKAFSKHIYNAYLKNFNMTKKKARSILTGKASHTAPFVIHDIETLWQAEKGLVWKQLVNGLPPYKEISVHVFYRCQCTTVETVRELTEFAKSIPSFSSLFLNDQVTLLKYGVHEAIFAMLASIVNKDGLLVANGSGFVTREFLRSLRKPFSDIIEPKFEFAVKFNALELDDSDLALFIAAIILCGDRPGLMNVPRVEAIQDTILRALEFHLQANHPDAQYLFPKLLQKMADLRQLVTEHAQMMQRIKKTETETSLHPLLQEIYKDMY

[9] = Induction of ABCA1 gene expression in human skeletal muscle cells at 1000 nM by RT-PCR; assay type: functional
[10] = Induction of ABCA1 gene expression in human skeletal muscle cells at 1 nM by RT-PCR; assay type: functional
[11] = Half life in Sprague-Dawley rat at 1 mg/kg administered as multiple dose after 8 days; assay type: ADME, organism-based; set-up: dose 1 mg/kg; conditions: in vivo
[12] = AUC in ob/ob C57BL/6J-leptin deficient obese mouse at 3 mg/kg administered as multiple dose after 11 days; assay type: ADME, organism-based; set-up: dose 3 mg/kg; conditions: plasma
[13] = Cmax in Beagle dog at 10 mg/kg administered as single dose on day 7; assay type: ADME, organism-based, Canis lupus familiaris; set-up: dose 10 mg/kg; conditions: in vivo
[14] = Half life in Sprague-Dawley rat at 0.1 mg/kg administered as multiple dose after 8 days; assay type: ADME, organism-based; set-up: dose 0.1 mg/kg; conditions: in vivo
Mus musculus [15] = test: Increase in hApoA1 level in po dosed hApoA1 transgenic mouse after 7 days; assay type: functional, organism-based
[16] = Cmax in Beagle dog at 3 mg/kg administered as multiple dose after 7 days; assay type: ADME, organism-based, Canis lupus familiaris; set-up: dose 3 mg/kg; conditions: in vivo
Mus musculus [17] = test: Reduction in triglyceride level in po dosed hApoA1 transgenic mouse after 7 days; assay type: functional, organism-based
Mus musculus [18] = test: […] effect of ob/ob C57BL/6J-leptin deficient obese mouse assessed as reduction in triglyceride level at 0.1 to 3 mg/kg, po after 11 days; assay type: functional; set-up: scale not given: the % may be the effect or the level left; conditions: dose mg/kg 0.1-3
[19] = AUC in Sprague-Dawley rat at 1 mg/kg administered as multiple dose after 8 days; assay type: ADME, organism-based; set-up: dose 1 mg/kg; conditions: plasma
[20] = Cmax in ob/ob C57BL/6J-leptin deficient obese mouse at 0.1 mg/kg administered as multiple dose after 11 days; assay type: ADME, organism-based; set-up: dose 0.1 mg/kg; conditions: in vivo
[21] = Half life in ob/ob C57BL/6J-leptin deficient obese mouse at 0.3 mg/kg administered as multiple dose after 11 days; assay type: ADME, organism-based; set-up: dose 0.3 mg/kg; conditions: in vivo
[22] = target: T2, Peroxisome proliferator-activated receptor alpha (Homo sapiens) (UniProt Q07869); test: Agonist activity at human PPARalpha-Gal4 in HEK293 cells by luciferase reporter assay relative to (S)-2-{2-[1-ethyl-3-(4-trifluoro-methoxyphenyl)ureido]indan-5-ylsulfanyl}-2-methylpropionic acid; assay type: functional, cell-based
T2 sequence (whole entry): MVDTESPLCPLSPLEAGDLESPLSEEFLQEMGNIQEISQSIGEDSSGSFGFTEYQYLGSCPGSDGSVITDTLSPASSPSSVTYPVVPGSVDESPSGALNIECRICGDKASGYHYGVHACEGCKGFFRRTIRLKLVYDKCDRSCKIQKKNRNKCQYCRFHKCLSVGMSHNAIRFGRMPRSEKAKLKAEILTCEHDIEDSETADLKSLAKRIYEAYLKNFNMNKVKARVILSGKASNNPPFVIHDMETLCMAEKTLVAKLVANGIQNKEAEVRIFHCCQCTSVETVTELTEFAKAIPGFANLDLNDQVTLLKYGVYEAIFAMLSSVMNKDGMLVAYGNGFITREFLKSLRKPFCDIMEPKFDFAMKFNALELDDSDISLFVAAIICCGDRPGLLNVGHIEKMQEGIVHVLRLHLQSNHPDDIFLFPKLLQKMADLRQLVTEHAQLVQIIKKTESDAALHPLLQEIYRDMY

Canis familiaris [23] = test: Antihyperlipidemic activity in Beagle dog serum assessed as reduction in total cholesterol level at 0.3 to 10 mg/kg, po/day after 7 days; assay type: functional, organism-based; conditions: Canis lupus familiaris
Mus musculus [24] = test: Increase in HDL cholesterol level in po dosed hApoA1 transgenic mouse after 7 days; assay type: functional, organism-based
[25] = Activity at retinoic acid X receptor
[26] = Cmax in ob/ob C57BL/6J-leptin deficient obese mouse at 3 mg/kg administered as single dose on day 11; assay type: ADME, organism-based; set-up: dose 3 mg/kg; conditions: in vivo
[27] = Cmax in ob/ob C57BL/6J-leptin deficient obese mouse at 1 mg/kg administered as multiple dose after 11 days; assay type: ADME, organism-based; set-up: dose 1 mg/kg; conditions: in vivo
[28] = Half life in ob/ob C57BL/6J-leptin deficient obese mouse at 0.1 mg/kg administered as multiple dose after 11 days; assay type: ADME, organism-based; set-up: dose 0.1 mg/kg; conditions: in vivo
[29] = AUC in Beagle dog at 3 mg/kg administered as multiple dose after 7 days; assay type: ADME, organism-based, Canis lupus familiaris; set-up: dose 3 mg/kg; conditions: plasma
[30] = AUC in Beagle dog at 1 mg/kg administered as multiple dose after 7 days; assay type: ADME, organism-based, Canis lupus familiaris; set-up: dose 1 mg/kg; conditions: plasma
Canis familiaris [31] = test: Antihyperlipidemic activity in Beagle dog serum assessed as reduction in triglyceride level at 0.3 to 10 mg/kg, po/day after 7 days; assay type: functional, organism-based; conditions: Canis lupus familiaris
[32] = Half life in Sprague-Dawley rat at 3 mg/kg administered as single dose on day 8; assay type: ADME, organism-based; set-up: dose 3 mg/kg; conditions: in vivo
[33] = Cmax in Sprague-Dawley rat at 3 mg/kg administered as multiple dose after 8 days; assay type: ADME, organism-based; set-up: dose 3 mg/kg; conditions: in vivo
[34] = Cmax in Beagle dog at 0.3 mg/kg administered as multiple dose after 7 days; assay type: ADME, organism-based, Canis lupus familiaris; set-up: dose 0.3 mg/kg; conditions: in vivo
Rattus norvegicus = test: Decrease in triglyceride level in po dosed hypercholesterolemic Sprague-Dawley rat serum after 8 days; assay type: functional, organism-based
[35] = Activity at liver X receptor
[36] = AUC in Sprague-Dawley rat at 0.3 mg/kg administered as multiple dose after 8 days; assay type: ADME, organism-based; set-up: dose 0.3 mg/kg; conditions: plasma
[37] = AUC in Beagle dog at 10 mg/kg administered as single dose on day 7; assay type: ADME, organism-based, Canis lupus familiaris; set-up: dose 10 mg/kg; conditions: plasma
[38] = AUC in Sprague-Dawley rat at 0.1 mg/kg administered as multiple dose after 8 days; assay type: ADME, organism-based; set-up: dose 0.1 mg/kg; conditions: plasma

SMILES: Cc1cc(SCc2nc(-c3ccc(Cl)c(Cl)c3)ns2)ccc1OC(C)(C)C(=O)O
- Activity (Canis familiaris [1]): Dose-dependent effect
- half-life [2]: 5.1 h
- AUC [3]: 115000 ng·h/mL
- half-life [4]: 6 h
- Activity [5]: inactive
- Cmax [6]: 2520 ng/mL
- Fold change [7]: 3
- EC50 [8]: 8 nM
- Fold change [9]: 4.8
- Fold change [10]: 1.5
- half-life [11]: 5.7 h
- AUC at 264 h [12]: 249000 ng·h/mL
- Cmax [13]: 10100 ng/mL
- half-life [14]: 5.5 h
- Activity (Mus musculus [15]): Dose-dependent effect
- Cmax [16]: 6710 ng/mL
- Activity (Mus musculus [17]): Active
- Activity (Mus musculus [18]): 83%
- AUC at 192 h [19]: 13900 ng·h/mL
- Cmax [20]: 480 ng/mL
- half-life [21]: 5 h
- Efficacy [22]: 56%
- Activity (Canis familiaris [23]): Dose-dependent effect
- Activity (Mus musculus [24]): Dose-dependent effect
- Activity [25]: inactive
- Cmax [26]: 19300 ng/mL
- Cmax [27]: 6830 ng/mL
- half-life [28]: 5.1 h
- AUC at 168 h [29]: 24100 ng·h/mL
- AUC at 168 h [30]: 6500 ng·h/mL
- Activity (Canis familiaris [31]): Dose-dependent effect
- half-life [32]: 7.2 h
- Cmax [33]: 2000 ng/mL
- Cmax [34]: 398 ng/mL
- Activity (Rattus norvegicus): Dose-dependent effect
- Activity [35]: inactive
- AUC at 192 h [36]: 2400 ng·h/mL
- AUC [37]: 57200 ng·h/mL
- AUC at 192 h [38]: 738 ng·h/mL
